# Tests used:
# DOHH2 = assay: Compound 1 with dexamethasone, CellTiter-Glo viability 72 h, combination index; format: cell-based; conditions: combination with Compound 1; DOHH2 cells; CellTiter-Glo 72 h; FIG. 11
# Procedure: The effects of Compound 1 with dexamethasone were examined in a panel of cell lines. Cells were cultured and assayed as follows. Compound 1 was serially diluted with cell culture medium and various DMSO concentrations. The top concentration of Compound 1 exposed to cells was 3 uM for cell lines other than WSU-NHL and DOHH2. For WSU-NHL and DOHH2 cell lines, the top concentration of Compound 1 exposed to the cells was 0.3 uM. Dexamethasone was serially diluted in culture media and phosphate buffered saline (PBS). The top concentration of dexamethasone used on cells was 3 uM. Cells were at least 73% viable and were counted and diluted for plating at a density of about 92,000 cell/mL, 130 uL cells per well in 96 well plates for SUDHL6, Karpas 422, SUDHL4, WSU-NHL, RL, and DOHH2 cell lines. The SUDHL10 cell line was plated at a density of about 46,000 cells/mL, 130 uL cells per well in 96 well plates.
# Various concentrations of Compound 1 and various combinations of dexamethasone were added to various wells of cells. Single agents (Compound 1 or dexamethasone alone) were also added to some wells of cells. Cells were incubated with compounds for 72 hours. To assay for effects of the compounds on cell viability, a CellTiter-Glo® luminescent cell viability assay (commercially available) was used. To each plate of cells, 100 uL CellTiter-Glo reagent was added, incubated, and luminescence quantified using a […].
# The results for cell line DOHH2 are depicted in FIG. 11 and Table 11. […] Table 11 depicts combination index (CI) values for different combinations of dexamethasone/Compound 1 concentrations.
# OCI-Ly7 = assay: Combination study, ATPLite 72 h, dose matrix (Synergy Score, CI50); conditions: combination with Compound 1, 72 h
# Procedure: (§1) Cells are thawed from a liquid nitrogen preserved state. Once cells have been expanded and divide at their expected doubling times, screening begins. Cells are seeded in growth media in either black 1536-well or 384-well tissue culture treated plates. Cells are then equilibrated in assay plates via centrifugation and placed in incubators attached to the Dosing Modules at 37° C. for 24 hours before treatment. […] These Tzero (To) plates are read using ultra-sensitive luminescence on Envision plate readers (Perkin Elmer). Treated assay plates are incubated with compound for 72 hours. After 72 hours, plates are developed for endpoint analysis using ATPLite. All data points are collected via automated processes, quality controlled and analyzed using Zalicus software.
# The measure of effect in the experiment can be the inhibition of cellular response relative to the untreated level (vehicle alone). […] The inhibition ranges from 0% at the untreated level to 100% when T=0. Inhibition levels are negative for agents that actually increase levels.
# (§2) Growth Inhibition (GI) is used as a measure of cell viability. […] A GI reading of 100% represents complete growth inhibition—T72 compound-treated and T0 vehicle signals are matched. […] A GI reading of 200% represents complete death of all cells in the culture well. Compounds reaching an activity plateau of GI 200% are considered cytotoxic. GI is calculated by applying the following test and equation:
# (§3) Combination analysis data were collected in a 6×6 dose matrix. Synergy is calculated by comparing a combination's response to those of its single compound, against the drug-with-itself dose-additive reference model. Deviations from dose additivity may be assessed visually on an isobologram or numerically with a Combination Index (CI). […] Additive effect is CI=1.0. […] Antagonistic effect is CI>1.0.
# (§4) To measure combination effects in excess of Loewe additivity, a scalar measure to characterize the strength of synergistic interaction termed the Synergy Score is devised. The Synergy Score is calculated as:
# (§5) The fractional inhibition for each component agent and combination point in the matrix is calculated relative to the median of all vehicle-treated control wells. The Synergy Score equation integrates the experimentally-observed activity volume at each point in the matrix in excess of a model surface numerically derived from the activity of the component agents using the Loewe model for additivity. Additional terms in the Synergy Score equation (above) are used to normalize for various dilution factors used for individual agents and to allow for comparison of synergy scores across an entire experiment. The inclusion of positive inhibition gating or an Idata multiplier removes noise near the zero effect level, and biases results for synergistic interactions at that occur at high activity levels.
# Loewe Volume (Loewe Vol) is used to assess the overall magnitude of the combination interaction in excess of the Loewe additivity model. Loewe Volume is particularly useful when distinguishing synergistic increases in a phenotypic activity (positive Loewe Volume) versus synergistic antagonisms (negative Loewe Volume). […] This model defines additivity as a non-synergistic combination interaction where the combination dose matrix surface should be indistinguishable from either drug crossed with itself. The calculation for Loewe additivity is:
# SU-DHL-4-epst = assay: as above; conditions: combination with Compound 1, 72 h
# DOHH-2 = assay: as above; conditions: combination with Compound 1, 72 h
# Farage = assay: as above; conditions: combination with Compound 1; Farage; 72 h
# RL = assay: as above; conditions: combination with Compound 1, 72 h
# Procedure: as §1
# (§6) where T is treated cell count and V is untreated (vehicle) cell count (at 72 hours). I ranges from 0% (when T=V) to 100% (when T=0). […] The measure of effect in the experiment can be the inhibition of cellular response relative to the untreated level (vehicle alone). […] The inhibition ranges from 0% at the untreated level to 100% when T=0. Inhibition levels are negative for agents that actually increase levels. Other effect measures, such as an activity ratio r=T/V may be more appropriate for some assays. When activity ratios (e.g, fold increase over stimulated control) are being used, the effect can be measured using an induction 1=ln(T/V). With this definition, all effect expressions are the same as for inhibition.
# as §2, §3, §4, §5
# (§7) Loewe Volume (Loewe Vol) is used to assess the overall magnitude of the combination interaction in excess of the Loewe additivity model. Loewe Volume is particularly useful when distinguishing synergistic increases in a phenotypic activity (positive Loewe Volume) versus synergistic antagonisms (negative Loewe Volume). […] This model defines additivity as a non-synergistic combination interaction where the combination dose matrix surface should be indistinguishable from either drug crossed with itself.
# KARPAS-422 = assay: as above; conditions: combination with Compound 1, 72 h
# WSU-NHL = assay: as above; conditions: combination with Compound 1, 72 h
# Procedure: as §1, §6, §2, §3, §4, §5, §7
smiles,measurement,setting,value
"C[C@@H]1C[C@H]2[C@@H]3CCC4=CC(=O)C=C[C@]4(C)[C@@]3(F)[C@@H](O)C[C@]2(C)[C@@]1(O)C(=O)CO [dexamethasone, (8S,9R,10S,11S,13S,14S,16R,17R)-9-Fluoro-11,17-dihydroxy-17-(2-hydroxyacetyl)-10,13,16-trimethyl-6,7,8,9,10,11,12,13,14,15,16,17-dodecahydro-3H-cyclopenta[a]phenanthren-3-one]",synergy of the combination,DOHH2,synergy
same,CI50 growth inhibition,OCI-Ly7,S (S=0.01 to <0.5)
same,CI50 inhibition,OCI-Ly7,S (S=0.01 to <0.5)
same,Synergy Score growth inhibition,OCI-Ly7,A3 (A3=>3)
same,Synergy Score inhibition,OCI-Ly7,A3 (A3=>3)
same,CI50 growth inhibition,SU-DHL-4-epst,T (T=0.5 to <0.7)
same,CI50 inhibition,SU-DHL-4-epst,T (T=0.5 to <0.7)
same,Synergy Score growth inhibition,SU-DHL-4-epst,A3 (A3=>3)
same,Synergy Score inhibition,SU-DHL-4-epst,A3 (A3=>3)
same,CI50 growth inhibition,DOHH-2,S (S=0.01 to <0.5)
same,CI50 inhibition,DOHH-2,T (T=0.5 to <0.7)
same,Synergy Score growth inhibition,DOHH-2,A3 (A3=>3)
same,Synergy Score inhibition,DOHH-2,A3 (A3=>3)
same,CI50 growth inhibition,Farage,U (U=0.7 to <1)
same,CI50 inhibition,Farage,T (T=0.5 to <0.7)
same,Synergy Score growth inhibition,Farage,A3 (A3=>3)
same,Synergy Score inhibition,Farage,A3 (A3=>3)
same,CI50 growth inhibition,RL,S (S=0.01 to <0.5)
same,CI50 inhibition,RL,S (S=0.01 to <0.5)
same,Synergy Score growth inhibition,RL,A3 (A3=>3)
same,Synergy Score inhibition,RL,A3 (A3=>3)
same,CI50 growth inhibition,KARPAS-422,U (U=0.7 to <1)
same,CI50 inhibition,KARPAS-422,U (U=0.7 to <1)
same,Synergy Score growth inhibition,KARPAS-422,A3 (A3=>3)
same,Synergy Score inhibition,KARPAS-422,A3 (A3=>3)
same,CI50 inhibition,WSU-NHL,T (T=0.5 to <0.7)
same,Synergy Score growth inhibition,WSU-NHL,A3 (A3=>3)
same,Synergy Score inhibition,WSU-NHL,A3 (A3=>3)
